Reference: ChEMBL document CHEMBL6153025, “Multidrug-resistant bacteria quorum-sensing inhibitors: A particular focus on Pseudomonasaeruginosa” (Eur J Med Chem, 2025)
≈ marks a conversion by molar mass, not a printed value. Blank lines part the entries; values can stand above or below the compound they belong to.

Tests used:
[1] = test system: Pseudomonas aeruginosa; test: Antibiofilm activity against Pseudomonas aeruginosa ATCC 27853 assessed as reduction in biofilm formation at 10 uM relative to control; type: functional; set-up: scale not given: the % may be the effect or the level left
[2] = test system: Pseudomonas aeruginosa; test: Antibacterial activity against Pseudomonas aeruginosa ATCC 27853 assessed as bacterial growth inhibition by agar diffusion assay; type: functional
[3] = test system: Pseudomonas aeruginosa; test: Antibacterial activity against Pseudomonas aeruginosa ATCC 27853; type: functional, organism-based
[4] = test system: Pseudomonas aeruginosa; test: Antibiofilm activity against Pseudomonas aeruginosa ATCC 27853 assessed as reduction in biofilm biomass at 16 ug/ml relative to control; type: functional; set-up: scale not given: the % may be the effect or the level left; details: dose 16 µg/ml
[5] = test system: Pseudomonas aeruginosa; test: Antimicrobial activity against Pseudomonas aeruginosa assessed as reduction in microbial growth; type: functional, organism-based
[6] = test system: Pseudomonas aeruginosa; test: Antibiofilm activity against Pseudomonas aeruginosa assessed as reduction in biofilm formation incubated for 24 hrs relative to control; type: functional; set-up: scale not given: the % may be the effect or the level left
[7] = test system: Pseudomonas aeruginosa; test: Downregulation of lasR mRNA expression in Pseudomonas aeruginosa PAO1 at 16 ug/ml relative to control; type: functional; details: dose 16 µg/ml
[8] = test system: Pseudomonas aeruginosa; test: Downregulation of lasI mRNA expression in Pseudomonas aeruginosa PAO1 at 16 ug/ml relative to control; type: functional; details: dose 16 µg/ml
[9] = test system: Pseudomonas aeruginosa; test: Downregulation of rhlR mRNA expression in Pseudomonas aeruginosa PAO1 at 160 ug/ml incubated for 6 hrs by RT-qPCR analysis relative to control; type: functional; details: dose 160 µg/ml
[10] = test system: Pseudomonas aeruginosa; test: Antibiofilm activity against Pseudomonas aeruginosa PAO1 assessed as reduction in biofilm formation at 16 ug/ml incubated for 2 to 4 hrs by crystal violet staining based analysis relative to control; type: functional; set-up: scale not given: the % may be the effect or the level left; details: dose 16 µg/ml; time 2-4 hrs
[11] = test system: Pseudomonas aeruginosa; test: Antibiofilm activity against Pseudomonas aeruginosa ATCC 15442 assessed as inhibition of biofilm formation at 16 ug/ml relative to control; type: functional; set-up: scale not given: the % may be the effect or the level left; details: dose 16 µg/ml
[12] = test system: Pseudomonas aeruginosa; test: Antibacterial activity against Pseudomonas aeruginosa ATCC 15442 assessed as reduction in bacterial cell growth incubated for 18 hrs by two fold serial microdilution method; type: functional
[13] = test system: Pseudomonas aeruginosa; test: Antibiofilm activity against Pseudomonas aeruginosa PAO1 assessed as inhibition of biofilm formation incubated for 24 hrs by crystal violet staining based assay; type: functional, organism-based; details: PAO1, 24 h
[14] = test system: Pseudomonas aeruginosa; test: Antimicrobial activity against Pseudomonas aeruginosa PAO1 assessed as inhibition of bacterial growth measured for 18 hrs by CLSI-based broth microdilution method; type: functional
[15] = test system: Pseudomonas aeruginosa; test: Antivirulence activity against Pseudomonas aeruginosa PAO1 assessed as inhibition of pyocyanin production at 16 ug/ml relative to control; type: functional; set-up: scale not given: the % may be the effect or the level left; details: dose 16 µg/ml
[16] = Inhibition of quorum sensing system in Pseudomonas aeruginosa PAO1 expressing lasB-gfp at 16 uM relative to control
[17] = test system: Pseudomonas aeruginosa; test: Antibacterial activity against Pseudomonas aeruginosa PAO1 assessed as reduction in bacterial growth by broth microdilution method; type: functional, organism-based
[18] = Inhibition of quorum sensing system in Pseudomonas aeruginosa PAO1 expressing lasB-gfp
[19] = test system: Pseudomonas aeruginosa; test: Antibacterial activity against Pseudomonas aeruginosa PAO1-L; type: functional, organism-based
[20] = test system: Pseudomonas aeruginosa; test: Anti-virulence activity against Pseudomonas aeruginosa PAO1-L assessed as reduction in pyocyanin production at 10 uM incubated for 24 hrs by absorbance based analysis relative to control; type: functional; set-up: scale not given: the % may be the effect or the level left
[21] = test system: Pseudomonas aeruginosa; test: Antibiofilm activity against Pseudomonas aeruginosa PAO1 assessed as inhibition of biofilm formation at 1 to 100 uM incubated for 24 hrs by crystal violet staining based assay relative to control; type: functional; set-up: scale not given: the % may be the effect or the level left; details: dose 1-100 µM
[22] = test system: Pseudomonas aeruginosa; test: Antivirulence activity against Pseudomonas aeruginosa PAO1 assessed as inhibition of rhamnolipid production at 16 ug/ml relative to control; type: functional; set-up: scale not given: the % may be the effect or the level left; details: dose 16 µg/ml

Structure (SMILES): CCCCCCCCSSc1nc2ccccc2c(=O)[nH]1
Activity [1]: 46%

MIC [2]: > 512 µg/mL | IC50 [3]: 115 µg/mL (≈ 335 µM)
Structure (SMILES): O=C(CSc1nc2ccccc2s1)c1ccc2c(c1)OCCO2

Structure (SMILES): COc1ccc(/C=C/C(=O)O)cc1OC
Activity [4]: 15.79%

Structure (SMILES): O=C(O)CCc1ccc(O)c(O)c1 [DIHYDROCAFFEIC ACID]
Activity [4]: 19.82%

Structure (SMILES): O=C1c2ccc(NS(=O)(=O)c3ccc(Cl)cc3)cc2OC2C=C(O)C=C(O)C12 (configuration not stated)
IC50 [5]: 100 µM | Activity [6]: 50%

Structure (SMILES): C=CCc1ccc(O)c(OC)c1 [EUGENOL]
Activity [7]: 51% | Activity [8]: 52% | Activity [9]: 65% | Activity [10]: 50%

MIC [12]: > 50 µM
Structure (SMILES): O=c1c2c(Cl)cccc2ncn1Cc1ccc(NCc2ccco2)cc1
Activity [11]: 26.7%

IC50 [13]: 3.29 µM
Structure (SMILES): CCCCCCCn1ccnc1

Structure (SMILES): C=CCSSc1nc2ccccc2c(=O)[nH]1
Activity [1]: 46%

MIC [14]: 0.48 µg/mL (≈ 1.69 µM)
Structure (SMILES): COc1ccc(-c2coc3cc(O)cc(O)c3c2=O)cc1 [BIOCHANIN]

Structure (SMILES): Cc1nc2cccc(Br)c2c(=O)n1/N=C/c1ccc(O)cc1
Activity [15]: 99.5% | Activity [11]: 25% | MIC [12]: > 50 µM

MIC [14]: 0.48 µg/mL (≈ 1.78 µM)
Structure (SMILES): O=c1cc(-c2ccc(O)cc2)oc2cc(O)cc(O)c12 [APIGENIN]

Structure (SMILES): COP(=O)(NCCCCOc1cc(O)c2c(=O)cc(-c3ccccc3)oc2c1)OC
IC50 [5]: 100 µM

MIC [2]: > 512 µg/mL | IC50 [3]: 182 µg/mL (≈ 578 µM)
Structure (SMILES): COc1cccc(C(=O)CSc2nc3ccccc3s2)c1

Structure (SMILES): Cc1ccc(CCOC(=O)/C=C/c2ccc(O)c(O)c2)cc1
Activity [4]: 22.67%

MIC [14]: 0.48 µg/mL (≈ 1.78 µM)
Structure (SMILES): O=c1c(-c2ccc(O)cc2)coc2cc(O)cc(O)c12 [GENISTEIN]

Structure (SMILES): CC(C)OP(=O)(NCCCCOc1cc(O)c2c(=O)cc(-c3ccccc3)oc2c1)OC(C)C
IC50 [5]: 100 µM

inhibition [16]: 41%
Structure (SMILES): CCCCC/C=C\C/C=C\CCCCCCCC(=O)O

MIC [17]: 5 µM (≈ 2.2 µg/mL)
Structure (SMILES): O=C(CNc1ccc(C(=O)/C=C/c2ccc(-c3ccccc3)cc2)cc1)N[C@@H]1CCOC1=O

MIC [17]: 5 µM (≈ 1.75 µg/mL)
Structure (SMILES): O=C(CN[C@H]1CCOC1=O)Nc1ccc(C/C=C/c2ccccc2)cc1

MIC [12]: > 50 µM
Structure (SMILES): Cc1nc2cccc(Br)c2c(=O)n1/N=C/C=C/c1ccccc1
Activity [11]: 58%

Structure (SMILES): O=C1c2ccc(NS(=O)(=O)c3ccc(F)cc3)cc2OC2C=C(O)C=C(O)C12 (configuration not stated)
IC50 [5]: 100 µM | Activity [6]: 78%

Structure (SMILES): O=C(/C=C/c1ccc(O)c(O)c1)OCCc1ccc(Cl)cc1
Activity [4]: 30.41%

MIC [17]: 5 µM (≈ 2.03 µg/mL)
Structure (SMILES): CC(C)c1ccc(/C=C/C(=O)c2ccc(NCC(=O)N[C@@H]3CCOC3=O)cc2)cc1

IC50 [13]: 0.4 µM
Structure (SMILES): CCn1ccnc1

MIC [2]: > 512 µg/mL | IC50 [3]: 45.5 µg/mL (≈ 132 µM)
Structure (SMILES): COc1ccc(C(=O)CSc2nc3ccccc3s2)c(OC)c1

Structure (SMILES): N#CCc1ccc(OC[C@H](O)Cn2cnc3ccc(Cl)cc3c2=O)cc1
IC50 [18]: 1 µM | IC50 [19]: 4.3 µM | Activity [20]: 80% | Activity [1]: 52%

MIC [17]: 5 µM (≈ 2 µg/mL)
Structure (SMILES): O=C(COc1ccc(C(=O)/C=C/c2ccccc2Cl)cc1)N[C@H]1CCOC1=O

Structure (SMILES): Nc1ccc(S(=O)(=O)Nc2ccc3c(c2)OC2C=C(O)C=C(O)C2C3=O)cc1 (configuration not stated)
IC50 [5]: 100 µM | Activity [6]: 50%

MIC [14]: 45 µg/mL (≈ 177 µM)
Structure (SMILES): O=c1c(-c2ccc(O)cc2)coc2cc(O)ccc12 [DAIDZEIN]

Structure (SMILES): Oc1ccc([C@H]2Oc3cc(O[C@H]4OC[C@@H](O)[C@@H](O)[C@@H]4O)cc(O)c3C[C@H]2O)cc1O
Activity [21]: 66%

Structure (SMILES): O=C(O)/C=C/c1ccc(O)c(O)c1 [CAFFEIC ACID]
Activity [4]: 33%

Structure (SMILES): COc1ccc(-c2cc(=O)c3c(O)cc(O)cc3o2)cc1 [ACACETIN]
Activity [15]: 53% | Activity [22]: 67% | MIC [14]: 0.48 µg/mL (≈ 1.69 µM)

Structure (SMILES): Oc1ccc2c(c1)OC[C@](O)(Cc1ccc(O)c(O)c1)[C@H]2O [SAPPANOL]
Activity [21]: 54.26%
